Assay results published in patent US12486489B2, “Culture medium for testing drug resistance of H.pylori as well as preparation method and use thereof” (priority 2022, dated 2025).
Where two headings read alike, the source gives them in different places.

Columns and labels:
H. pylori [1] = assay: MIC of laboratory H. pylori strains by micro dilution method; format: cell-based; conditions: Helicobacter pylori
Experimental: (3) Preparation of bacterial solution: H. pylori grown in logarithmic phase on a solid plate is taken, BHI culture medium is used to prepare a bacterial suspension. The concentration of the bacterial solution is adjusted to 1×10^8 CFU/mL (OD600 is 0.3), diluted 10 times, 100 times, and 1000 times to implement a final concentration of […], for the subsequent use.
(4) Inoculation of bacterial solution: 10 μL of the above bacterial solution for the subsequent use is taken and added to wells the 1-10-th and the 12-th well (bacterial working concentration is 1×10^6 CFU/mL), the 11-th well serves as a non-bacterial control and only sterile water is added. The wells are cultivated for 72 hours to determine the results.

H. pylori [2] = assay: Verification of resistance breakpoint: growth of laboratory strains on Columbia solid culture medium with added antibiotics, 72 hours; format: cell-based, Helicobacter pylori
Experimental: The plates are cooled and inverted for approximately 10 mL/piece, marked properly for the subsequent use.
(2) Preparation of bacterial solution: H. pylori grown in logarithmic phase on a solid plate is taken to prepare a bacterial suspension by using BHI. The concentration OD600 is adjusted to 0.3 (1×10^8 CFU/mL), diluted 10 times for the subsequent use.
(3) Inoculation of bacterial solution: 10 μL of bacterial solution is taken and added to Columbia culture medium and the results are determined after cultivating for 72 hours.
(4) Result determination: the minimum drug concentration for no growth of bacteria on the plate is the minimum inhibitory concentration of the bacteria against the drug.

H. pylori [3] = assay: Drug resistance testing of laboratory strains on characteristic culture medium (discoloration after 36 hours); format: cell-based, Helicobacter pylori
Experimental: The characteristic culture media (A, B, C, D, E) are cultivated at a constant temperature of 37° C. for 36 hours in a three gas incubator. The characteristic culture media are removed and placed in a natural environment for 30 minutes to observe whether there are discolorations at the point of the culture medium where the specimen is dropped in. […] Another 100 μL of the specimen is taken and coated on Columbia solid culture medium and cultivated in a three gas incubator at a constant temperature of 37° C. for 3 days to 5 days. The number of colonies on the plate is counted to determine the initial inoculation amount. The micro dilution method is adopted to test the MIC of clinical specimen H. pylori, the test is meaningful only when there is no bacterial growth in the negative control well without bacteria and there is bacterial growth in the positive well with bacteria but without antibiotics. […] The results are recorded and whether the micro dilution method and characteristic culture medium are consistent with each other in evaluating the drug resistance of clinical H. pylori strains is compared. […]
(2) Inoculation of bacterial solution: 10 μL bacterial solution is taken and added dropwise onto a characteristic culture medium with 5 pieces (ABCDE) in total.
(3) Culture: all plates are moved to a three gas incubator and cultivated at 37° C. for 36 hours. After being taken out and placed in a natural environment for 30 minutes, whether the bacteria have resistance is determined based on the discoloration of the characteristic culture medium.

[4] = system: clinical H. pylori strain; assay: MIC of clinical H. pylori strains by micro dilution method; format: cell-based; conditions: Helicobacter pylori, 72 h
Experimental: The characteristic culture media (A, B, C, D, E) are cultivated at a constant temperature of 37° C. for 36 hours in a three gas incubator. The characteristic culture media are removed and placed in a natural environment for 30 minutes to observe whether there are discolorations at the point of the culture medium where the specimen is dropped in. […] Another 100 μL of the specimen is taken and coated on Columbia solid culture medium and cultivated in a three gas incubator at a constant temperature of 37° C. for 3 days to 5 days. The number of colonies on the plate is counted to determine the initial inoculation amount. The micro dilution method is adopted to test the MIC of clinical specimen H. pylori, the test is meaningful only when there is no bacterial growth in the negative control well without bacteria and there is bacterial growth in the positive well with bacteria but without antibiotics.
H. pylori single colony grown on Colombian culture medium is taken (which is confirmed as H. pylori by urease, oxidase, catalase, and PCR testing of CagA gene, as illustrated in FIG. 13) and the bacteria are increased. During the preparation of MIC plates and bacterial solution, H. pylori with logarithmic growth phase is taken to prepare a bacterial suspension by using BHI. The concentration OD600 is adjusted to 0.3 (1×10^8 CFU/mL, diluted 10 times, 10 μL is taken and added to wells 1-8 (with a bacterial solution concentration of approximately 1.0×10^6 CFU/mL per well, cultivated for 72 hours to determine the results.

H. pylori [5] = conditions: bacterial count 1×10^6 CFU/mL; cited from earlier work

CC[C@H]1OC(=O)[C@H](C)[C@@H](O[C@H]2C[C@@](C)(OC)[C@@H](O)[C@H](C)O2)[C@H](C)[C@@H](O[C@@H]2O[C@H](C)C[C@H](N(C)C)[C@H]2O)[C@](C)(OC)C[C@@H](C)C(=O)[C@H](C)[C@@H](O)[C@]1(C)O [Clarithromycin, clarithromycin]
MIC (H. pylori [1]; read-out: MICs, standard sensitive strains G27 and 26695, bacterial count 1×10^6 CFU/mL): 0.0312 to 0.0625 µg/mL
MIC (H. pylori [1]; read-out: minimum inhibitory concentration (MIC), strain 159, bacterial count 10^4 CFU/mL): 0.0312 µg/mL
MIC (H. pylori [1]; read-out: minimum inhibitory concentration (MIC), strain 161, bacterial count 10^4 CFU/mL): 0.5 µg/mL
MIC (H. pylori [1]; read-out: minimum inhibitory concentration (MIC), strain 161, bacterial count 10^6 CFU/mL (first line of the strain)): 2 µg/mL
MIC (H. pylori [1]; read-out: minimum inhibitory concentration (MIC), strain 161, bacterial count 10^6 CFU/mL (second line of the strain)): 1 µg/mL
MIC (H. pylori [1]; read-out: minimum inhibitory concentration (MIC), strain 162, bacterial count 10^4 CFU/mL): 1 µg/mL
MIC (H. pylori [1]; read-out: minimum inhibitory concentration (MIC), strain 162, bacterial count 10^6 CFU/mL (first line of the strain)): 8 µg/mL
MIC (H. pylori [1]; read-out: minimum inhibitory concentration (MIC), strain 162, bacterial count 10^6 CFU/mL (second line of the strain)): 4 µg/mL
MIC (H. pylori [1]; read-out: minimum inhibitory concentration (MIC), strain 163, bacterial count 10^6 CFU/mL (first line of the strain)): 0.5 µg/mL
MIC (H. pylori [1]; read-out: minimum inhibitory concentration (MIC), strain 163, bacterial count 10^6 CFU/mL (second line of the strain)): 0.25 µg/mL
MIC (H. pylori [1]; read-out: minimum inhibitory concentration (MIC), strain 286, bacterial count 10^4 CFU/mL): 1 µg/mL
MIC (H. pylori [1]; read-out: minimum inhibitory concentration (MIC), strain 286, bacterial count 10^6 CFU/mL (first line of the strain)): 8 µg/mL
MIC (H. pylori [1]; read-out: minimum inhibitory concentration (MIC), strain 286, bacterial count 10^6 CFU/mL (second line of the strain)): 4 µg/mL
MIC (H. pylori [1]; read-out: minimum inhibitory concentration (MIC), strain 287, bacterial count 10^4 CFU/mL): 8 µg/mL
MIC (H. pylori [1]; read-out: minimum inhibitory concentration (MIC), strain 287, bacterial count 10^6 CFU/mL (first line of the strain)): 4 µg/mL
MIC (H. pylori [1]; read-out: minimum inhibitory concentration (MIC), strain 287, bacterial count 10^6 CFU/mL (second line of the strain)): 2 µg/mL
MIC (H. pylori [1]; read-out: minimum inhibitory concentration (MIC), strain 289, bacterial count 10^4 CFU/mL): 2 µg/mL
MIC (H. pylori [1]; read-out: minimum inhibitory concentration (MIC), strain 289, bacterial count 10^6 CFU/mL (first line of the strain)): 32 µg/mL
MIC (H. pylori [1]; read-out: minimum inhibitory concentration (MIC), strain 289, bacterial count 10^6 CFU/mL (second line of the strain)): 8 µg/mL
MIC (H. pylori [1]; read-out: minimum inhibitory concentration (MIC), strain 290, bacterial count 10^4 CFU/mL): 4 µg/mL
MIC (H. pylori [1]; read-out: minimum inhibitory concentration (MIC), strain 290, bacterial count 10^6 CFU/mL (first line of the strain)): 16 µg/mL
MIC (H. pylori [1]; read-out: minimum inhibitory concentration (MIC), strain 290, bacterial count 10^6 CFU/mL (second line of the strain)): 4 µg/mL
MIC (H. pylori [1]; resistant strains 159, 161, 162, 163, 286, 287, 289, and 290, bacterial count 1×10^6 CFU/mL, read-out: MICs): 0.0625 to 8 µg/mL
MIC (H. pylori [1]; strain 159, bacterial count 10^6 CFU/mL (first line of the strain), read-out: minimum inhibitory concentration (MIC)): 0.125 µg/mL
MIC (H. pylori [1]; strain 159, bacterial count 10^6 CFU/mL (second line of the strain), read-out: minimum inhibitory concentration (MIC)): 0.0625 µg/mL
MIC (H. pylori [1]; strain 163, bacterial count 10^4 CFU/mL, read-out: minimum inhibitory concentration (MIC)): 0.125 µg/mL
MIC (H. pylori [1]; strain 26695, bacterial count 10^6 CFU/mL (first line of the strain), read-out: minimum inhibitory concentration (MIC)): 0.125 µg/mL
MIC (H. pylori [1]; strain 26695, bacterial count 10^6 CFU/mL (second line of the strain), read-out: minimum inhibitory concentration (MIC)): 0.0625 µg/mL
MIC (H. pylori [1]; strain G27, bacterial count 10^4 CFU/mL, read-out: minimum inhibitory concentration (MIC)): 0.0156 µg/mL
MIC (H. pylori [1]; strain G27, bacterial count 10^6 CFU/mL (first line of the strain), read-out: minimum inhibitory concentration (MIC)): 0.0625 µg/mL
MIC (H. pylori [1]; strain G27, bacterial count 10^6 CFU/mL (second line of the strain), read-out: minimum inhibitory concentration (MIC)): 0.0312 µg/mL
optimal concentration for adding antibiotics (H. pylori [2]; conclusion of breakpoint verification): 0.5 µg/mL
growth of sensitive strains (H. pylori [2]; levofloxacin 0.5, clarithromycin 0.5, metronidazole 4, amoxicillin 0.5 μg/mL): no sensitive strain grows
growth of bacterial (H. pylori [2]; strain 159, antibiotic 0.25 μg/mL): +
growth of bacterial (H. pylori [2]; strain 159, antibiotic 0.5 μg/mL): +
growth of bacterial (H. pylori [2]; strain 159, antibiotic 1 μg/mL): −
growth of bacterial (H. pylori [2]; strain 161, antibiotic 0.25 μg/mL): +
growth of bacterial (H. pylori [2]; strain 161, antibiotic 0.5 μg/mL): +
growth of bacterial (H. pylori [2]; strain 161, antibiotic 1 μg/mL): −
growth of bacterial (H. pylori [2]; strain 162, antibiotic 0.25 μg/mL): +
growth of bacterial (H. pylori [2]; strain 162, antibiotic 0.5 μg/mL): +
growth of bacterial (H. pylori [2]; strain 162, antibiotic 1 μg/mL): −
growth of bacterial (H. pylori [2]; strain 163, antibiotic 0.25 μg/mL): −
growth of bacterial (H. pylori [2]; strain 163, antibiotic 0.5 μg/mL): −
growth of bacterial (H. pylori [2]; strain 163, antibiotic 1 μg/mL): −
growth of bacterial (H. pylori [2]; strain 286, antibiotic 0.25 μg/mL): +
growth of bacterial (H. pylori [2]; strain 286, antibiotic 0.5 μg/mL): +
growth of bacterial (H. pylori [2]; strain 286, antibiotic 1 μg/mL): −
growth of bacterial (H. pylori [2]; strain 287, antibiotic 0.25 μg/mL): +
growth of bacterial (H. pylori [2]; strain 287, antibiotic 0.5 μg/mL): +
growth of bacterial (H. pylori [2]; strain 287, antibiotic 1 μg/mL): −
growth of bacterial (H. pylori [2]; strain 289, antibiotic 0.25 μg/mL): +
growth of bacterial (H. pylori [2]; strain 289, antibiotic 0.5 μg/mL): +
growth of bacterial (H. pylori [2]; strain 289, antibiotic 1 μg/mL): +
growth of bacterial (H. pylori [2]; strain 290, antibiotic 0.25 μg/mL): +
growth of bacterial (H. pylori [2]; strain 290, antibiotic 0.5 μg/mL): +
growth of bacterial (H. pylori [2]; strain 290, antibiotic 1 μg/mL): −
growth of bacterial (H. pylori [2]; strain 26695, antibiotic 0.25 μg/mL): +
growth of bacterial (H. pylori [2]; strain 26695, antibiotic 0.5 μg/mL): −
growth of bacterial (H. pylori [2]; strain 26695, antibiotic 1 μg/mL): −
growth of bacterial (H. pylori [2]; strain G27, antibiotic 0.25 μg/mL): +
growth of bacterial (H. pylori [2]; strain G27, antibiotic 0.5 μg/mL): −
growth of bacterial (H. pylori [2]; strain G27, antibiotic 1 μg/mL): −
drug resistance determined by discoloration of characteristic culture medium (H. pylori [3]; strain 159, 1×10^6 CFU/mL): developed resistance
drug resistance determined by discoloration of characteristic culture medium (H. pylori [3]; strain 286, 1×10^6 CFU/mL): have developed resistance
drug resistance determined by discoloration of characteristic culture medium (H. pylori [3]; strain 287, 1×10^6 CFU/mL): have developed resistance
drug resistance determined by discoloration of characteristic culture medium (H. pylori [3]; strain 289, 1×10^6 CFU/mL): have developed resistance
drug resistance determined by discoloration of characteristic culture medium (H. pylori [3]; strain G27, 1×10^6 CFU/mL): does not develop resistance
MIC [4]: 0.125 µg/mL
MIC ([4]; clinical strain FY-31, approximately 1.0×10^6 CFU/mL per well, 72 hours, read-out: MIC): 0.0625 µg/mL
MIC ([4]; clinical strain FY-47, approximately 1.0×10^6 CFU/mL per well, 72 hours, read-out: MIC): 0.0625 µg/mL
MIC ([4]; clinical strain FY-52, approximately 1.0×10^6 CFU/mL per well, 72 hours, read-out: MIC): 0.25 µg/mL
resistance breakpoints of H. pylori according to CLSI guidelines (H. pylori [5]): 2 µg/mL
